# Test results taken from patent US5968912A, “Methods for immunosuppressing” (Immune Modulation, Inc., priority 1997, dated 1999).
# Test system: H-2K anti-H-2d cytotoxic T-cells
# Experiment: Generation of H-2K anti-H-2d cytotoxic T-cell activity in mice, ex vivo 51Cr-release assay
# Design: species or system mouse (C3H/J; DBA/2 targets)
# Procedure: Generation of H-2 Restricted Cytolytic T-lymphocytes in Mice
# A mouse correlate of the human "one-way MLR" was developed in inbred strains of mice. The cells of one mouse strain (H-2^d) were injected i.v. into a different mouse strain (H-2^k). Mice were obtained from Charles River Laboratories, Hollister, Calif.). Because of the histoincompatibility between the two strains, the H-2^k mice develop cytotoxic T-cells capable of killing the cells of the H-2^d strain of mice (Abbas, A. K., id), which is the type of reaction observed in humans or animals receiving tissue grafts from histoincompatible donors. The H-2^k mice sensitized against H-2^d cells/allo-antigens were treated with either HE-33 (100 mg/kg i.v. or 400 mg/kg orally) every three days for 9 days or were not treated with drug.
# Ex Vivo Assay. On the tenth day, all mice were sacrificed, and spleens were removed to test for splenic T-cell-mediated cytotoxicity against CON-A stimulated DBA/2 spleen cells expressing the H-2^d antigens. CON-A was obtained from Sigma Chem. Co., St. Louis, Mo. Spleen cell suspensions were prepared in complete culture medium and adjusted to desired concentrations. The CON-A blast cells were radiolabeled with ^51 Cr and mixed with the respective splenic effector cells at varying effector:target cell ratios in 96-well microtiter plates. The mixtures were cultured for 4 hr. at 37° C. in a 5% CO2 incubator. Lysis of target cells were assessed essentially as described previously for a ^51 Cr-release assay (Ojo-Amaize, E. A., et al., id) and results expressed as % specific lysis (FIG. 1).
# *C3 H/J mouse was injected with 2 × 10^7 DBA/2 spleen cell
# for 9 days. HE33 was administered either orally (400 mg/kg) or
# intravenously (100 mg/kg) on day 0 and every three days. ConA stimulated
# DBA/2 spleen cells were used as target cells.
smiles,measurement,setting,value
"CCCN(CCC)c1ncnc2c1ncn2[C@@H]1O[C@@H]2COP(=O)(O)O[C@H]2[C@H]1O [HE-33, N^6,N^6 -di-n-Propyl-c-AMP]",L.U.,I.V. injected 100 mg/kg,1 L.U.
same,% Inhibition of cytotoxic T-cell activity,I.V. injected 100 mg/kg every three days,92%
same,% Lysis,"I.V. injected 100 mg/kg, ratio 3.12:1",0%
same,% Lysis,"I.V. injected 100 mg/kg, ratio 6.25:1",0%
same,% Lysis,"I.V. injected 100 mg/kg, ratio 12.5:1",0%
same,% Lysis,"I.V. injected 100 mg/kg, ratio 25:1",1%
same,% Inhibition of cytotoxic T-cell activity,oral fed 400 mg/kg,32%
same,L.U.,oral fed 400 mg/kg,9 L.U.
same,% Lysis,"oral fed 400 mg/kg, ratio 3.12:1",1%
same,% Lysis,"oral fed 400 mg/kg, ratio 6.25:1",2%
same,% Lysis,"oral fed 400 mg/kg, ratio 12.5:1",2%
same,% Lysis,"oral fed 400 mg/kg, ratio 25:1",5%
